Reference: ChEMBL document CHEMBL1138308, “Synthesis and antibacterial activity of potent heterocyclic oxazolidinones and the identification of RBx 8700” (2007)
≈ marks a conversion by molar mass, not a printed value.

System: Mycobacterium tuberculosis
Assay: Antibacterial activity against multi drug resistant Mycobacterium tuberculosis
Format: functional

## CC(=O)NC[C@H]1CN(c2ccc(N3CCN(c4ccc([N+](=O)[O-])s4)CC3)c(F)c2)C(=O)O1
  MIC90: 1 µg/mL (≈ 2.16 µM)
